Data: patent publication US20250205186A1, “USE OF CHLOROGENIC ACID IN PREPARING MEDICINE OR PHARMACEUTICAL COMPOSITION FOR PREVENTING OR TREATING PAIN” (SICHUAN JIUZHANG BIOLOGICAL SCIENCE AND TECHNOLOGY CO., LTD., priority 2019, published 2025)

Legend:
[1] = tested on: bone cancer pain in rats (Walker rat breast cancer cells, tibia implant model); test: Mechanical pain hypersensitivity (paw withdrawal threshold) in rat tibia implant bone cancer pain model; assay type: in vivo; conditions: for Paw withdrawal threshold compared with the model group: from 5-7 days after administration, p<0.05
Method: After two SD female rats were intraperitoneally injected with 0.5 mL cancer cells (4×10^4 cells/μL), ascites was collected on the 7th day, and the cells are rinsed 3 times with sterile 0.01 mol/L PBS to adjust to the concentration of 4×10^3 cells/μL for use. 60 SD rats were randomly selected, and after anesthesia, a small 1 cm incision was made in the upper tibial skin. A 10 mL syringe needle was used to puncture and perforate, then a 10 μL syringe was inserted into the bone marrow cavity, and 3 μL cell suspension containing […] Walker rat breast cancer cells was slowly injected. The pinhole was sealed with bone wax, and the skin was sutured. After surgery, the rats were placed on a 37° C. hot plate for rewarming. After recovery, rats were returned to the cage for further breeding, to obtain the model group. In addition, 8 SD rats were randomly selected, and an equal volume of PBS solution was injected into the marrow cavity of the left upper tibia. The rest of the operations were the same as the model group, to obtain the sham operation group. Mechanical pain hypersensitivity: continuous pain measurement was performed from the 10th day after the operation, the contact stimulator's fine fibers were allowed to touch with the middle of the affected side of the rat's plantar, and the force can be increased up to 80 g within 5 seconds. The rat's paw withdrawal respond was observed, and the paw withdrawal threshold was recorded. Each animal was tested 5 times, with an interval of 5 min between two tests. […] The rats that had been successfully modeled were randomly divided into groups, eight rats for each group, that included high-dose chlorogenic acid group (80 mg/kg), middle-dose chlorogenic acid group (40 mg/kg), low-dose chlorogenic acid group (20 mg/kg), model negative group (N.S normal saline), and sham operation group (N.S normal saline). The rats were intraperitoneally injected with drugs for 15 days in a volume of 0.2 mL/10 g, once a day; the model-negative group and the sham operation group were given the same volume of normal saline. From the second day after administration, the mechanical pain hypersensitivity and radiation thermal pain were investigated before each administration, and the paw withdrawal threshold and the pain threshold were recorded.

5-HT = 5-HT content in brain tissue by HPLC-EC in bone cancer pain rats; assay type: in vivo, rat; conditions: for 5-HT content in the brain tissue: after 15 days of administration
Method: 60 SD rats were randomly selected, and after anesthesia, a small 1 cm incision was made in the upper tibial skin. A 10 mL syringe needle was used to puncture and perforate, then a 10 μL syringe was inserted into the bone marrow cavity, and 3 μL cell suspension containing […] Walker rat breast cancer cells was slowly injected. The pinhole was sealed with bone wax, and the skin was sutured. After surgery, the rats were placed on a 37° C. hot plate for rewarming. After recovery, rats were returned to the cage for further breeding, to obtain the model group. In addition, 8 SD rats were randomly selected, and an equal volume of PBS solution was injected into the marrow cavity of the left upper tibia. The rest of the operations were the same as the model group, to obtain the sham operation group. The rats that had been successfully modeled were randomly divided into groups, eight rats for each group, that included high-dose chlorogenic acid group (80 mg/kg), middle-dose chlorogenic acid group (40 mg/kg), low-dose chlorogenic acid group (20 mg/kg), model negative group (N.S normal saline), and sham operation group (N.S normal saline). The rats were intraperitoneally injected with drugs for 15 days in a volume of 0.2 mL/10 g, once a day; the model-negative group and the sham operation group were given the same volume of normal saline. After the rats were sacrificed, the hypothalamus was quickly separated, homogenized in an ice bath with perchloric acid, and centrifuged. The supernatant was collected, and the contents of NE, DA, and 5-HT were determined by HPLC-EC method (Hou […], Wang Na, et al, Effects of progesterone on morphine-induced conditioned place preference and levels of monoamine transmitters in rat brain. Chinese Journal of Pharmacology, 2006, 22(8), 980-983).

Q: `O=C(/C=C/c1ccc(O)c(O)c1)O[C@@H]1C[C@](O)(C(=O)O)C[C@@H](O)[C@H]1O` [Chlorogenic acid] was tested. Which Paw withdraw threshold ([1]; 20 mg/kg ip once a day, 2 d) did it give?
A: Its Paw withdraw threshold is 16.46 g.

Q: What about the Paw withdraw threshold ([1]; 20 mg/kg ip once a day, 3 d) of the same compound?
A: The Paw withdraw threshold was 22.32 g.

Q: And the Paw withdraw threshold ([1]; 20 mg/kg ip once a day, 4 d)?
A: Its Paw withdraw threshold is 26.14 g.

Q: What about the Paw withdraw threshold ([1]; 20 mg/kg ip once a day, 5 d) of the same compound?
A: Its Paw withdraw threshold is 24.86 g.

Q: And the Paw withdraw threshold ([1]; 20 mg/kg ip once a day, 6 d)?
A: The Paw withdraw threshold was 31.21 g.

Q: And the Paw withdraw threshold ([1]; 20 mg/kg ip once a day, 7 d)?
A: The Paw withdraw threshold was 37.06 g.

Q: What about the Paw withdraw threshold ([1]; 20 mg/kg ip once a day, 8 d) of the same compound?
A: The Paw withdraw threshold was 35.11 g.

Q: And the Paw withdraw threshold ([1]; 20 mg/kg ip once a day, 9 d)?
A: Its Paw withdraw threshold is 38.48 g.

Q: What about the Paw withdraw threshold ([1]; 20 mg/kg ip once a day, 10 d) of the same compound?
A: The Paw withdraw threshold was 37.23 g.

Q: What about the Paw withdraw threshold ([1]; 20 mg/kg ip once a day, 11 d) of the same compound?
A: The Paw withdraw threshold was 34.22 g.

Q: What about the Paw withdraw threshold ([1]; 20 mg/kg ip once a day, 12 d) of the same compound?
A: The Paw withdraw threshold was 36.74 g.

Q: And the Paw withdraw threshold ([1]; 20 mg/kg ip once a day, 13 d)?
A: Its Paw withdraw threshold is 33.02 g.

Q: And the Paw withdraw threshold ([1]; 20 mg/kg ip once a day, 14 d)?
A: The Paw withdraw threshold was 35.43 g.

Q: And the Paw withdraw threshold ([1]; 20 mg/kg ip once a day, 15 d)?
A: The Paw withdraw threshold was 36.52 g.

Q: What about the “Paw withdrawal threshold compared with the model group” value ([1]; 20 mg/kg) of the same compound?
A: The value was “significant difference”.

Q: What about the Paw withdraw threshold ([1]; 40 mg/kg ip once a day, 2 d) of the same compound?
A: Its Paw withdraw threshold is 18.53 g.

Q: And the Paw withdraw threshold ([1]; 40 mg/kg ip once a day, 3 d)?
A: Its Paw withdraw threshold is 24.94 g.

Q: And the Paw withdraw threshold ([1]; 40 mg/kg ip once a day, 4 d)?
A: Its Paw withdraw threshold is 36.37 g.

Q: What about the Paw withdraw threshold ([1]; 40 mg/kg ip once a day, 5 d) of the same compound?
A: The Paw withdraw threshold was 42.83 g.

Q: And the Paw withdraw threshold ([1]; 40 mg/kg ip once a day, 6 d)?
A: Its Paw withdraw threshold is 43.59 g.

Q: What about the Paw withdraw threshold ([1]; 40 mg/kg ip once a day, 7 d) of the same compound?
A: Its Paw withdraw threshold is 45.85 g.

Q: What about the Paw withdraw threshold ([1]; 40 mg/kg ip once a day, 8 d) of the same compound?
A: The Paw withdraw threshold was 50.41 g.

Q: What about the Paw withdraw threshold ([1]; 40 mg/kg ip once a day, 9 d) of the same compound?
A: Its Paw withdraw threshold is 46.49 g.

Q: What about the Paw withdraw threshold ([1]; 40 mg/kg ip once a day, 10 d) of the same compound?
A: The Paw withdraw threshold was 48.77 g.

Q: And the Paw withdraw threshold ([1]; 40 mg/kg ip once a day, 11 d)?
A: Its Paw withdraw threshold is 44.59 g.

Q: And the Paw withdraw threshold ([1]; 40 mg/kg ip once a day, 12 d)?
A: The Paw withdraw threshold was 50.52 g.

Q: And the Paw withdraw threshold ([1]; 40 mg/kg ip once a day, 13 d)?
A: The Paw withdraw threshold was 43.72 g.

Q: And the Paw withdraw threshold ([1]; 40 mg/kg ip once a day, 14 d)?
A: The Paw withdraw threshold was 48.73 g.

Q: What about the Paw withdraw threshold ([1]; 40 mg/kg ip once a day, 15 d) of the same compound?
A: Its Paw withdraw threshold is 46.51 g.

Q: What about the “Paw withdrawal threshold compared with the model group” value ([1]; 40 mg/kg) of the same compound?
A: The value was “significant difference”.

Q: And the Paw withdraw threshold ([1]; 80 mg/kg ip once a day, 2 d)?
A: The Paw withdraw threshold was 20.58 g.

Q: What about the Paw withdraw threshold ([1]; 80 mg/kg ip once a day, 3 d) of the same compound?
A: The Paw withdraw threshold was 18.59 g.

Q: What about the Paw withdraw threshold ([1]; 80 mg/kg ip once a day, 4 d) of the same compound?
A: Its Paw withdraw threshold is 24.41 g.

Q: And the Paw withdraw threshold ([1]; 80 mg/kg ip once a day, 5 d)?
A: Its Paw withdraw threshold is 24.39 g.

Q: What about the Paw withdraw threshold ([1]; 80 mg/kg ip once a day, 6 d) of the same compound?
A: The Paw withdraw threshold was 26.53 g.

Q: What about the Paw withdraw threshold ([1]; 80 mg/kg ip once a day, 7 d) of the same compound?
A: The Paw withdraw threshold was 26.07 g.

Q: And the Paw withdraw threshold ([1]; 80 mg/kg ip once a day, 8 d)?
A: Its Paw withdraw threshold is 24.52 g.

Q: And the Paw withdraw threshold ([1]; 80 mg/kg ip once a day, 9 d)?
A: The Paw withdraw threshold was 26.11 g.

Q: What about the Paw withdraw threshold ([1]; 80 mg/kg ip once a day, 10 d) of the same compound?
A: The Paw withdraw threshold was 23.21 g.

Q: What about the Paw withdraw threshold ([1]; 80 mg/kg ip once a day, 11 d) of the same compound?
A: The Paw withdraw threshold was 25.42 g.

Q: And the Paw withdraw threshold ([1]; 80 mg/kg ip once a day, 12 d)?
A: Its Paw withdraw threshold is 22.63 g.

Q: What about the Paw withdraw threshold ([1]; 80 mg/kg ip once a day, 13 d) of the same compound?
A: Its Paw withdraw threshold is 25.79 g.

Q: And the Paw withdraw threshold ([1]; 80 mg/kg ip once a day, 14 d)?
A: The Paw withdraw threshold was 23.25 g.

Q: And the Paw withdraw threshold ([1]; 80 mg/kg ip once a day, 15 d)?
A: Its Paw withdraw threshold is 24.83 g.

Q: What about the “Mechanical paw withdrawal threshold compared with the model group” value ([1]; 80 mg/kg, p>0.05) of the same compound?
A: Its value is “not statistically significant”.

Q: And the “5-HT content in the brain tissue” value (5-HT; 20 mg/kg ip once a day)?
A: Its value is 0.91 ± 0.15 nmol/g.

Q: And the “5-HT content in brain tissue compared with the model-negative group” value (5-HT; 20 mg/kg, p<0.05)?
A: The value was “the difference was significant”.

Q: What about the “5-HT content in the brain tissue” value (5-HT; 40 mg/kg ip once a day) of the same compound?
A: Its value is 0.95 ± 0.19 nmol/g.

Q: And the “5-HT content in brain tissue compared with the model-negative group” value (5-HT; 40 mg/kg, p<0.05)?
A: The value was “the difference was significant”.

Q: And the “5-HT content in the brain tissue” value (5-HT; 80 mg/kg ip once a day)?
A: Its value is 0.77 ± 0.11 nmol/g.

Q: What about the “5-HT content in brain tissue compared with the model-negative group” value (5-HT; 80 mg/kg, p>0.05) of the same compound?
A: Its value is “no significant difference”.
